Reference: patent US20060269924A1, “Modulation of telomere-initiated cell signaling” (TRUSTEES OF BOSTON UNIVERSITY, priority 2003, published 2006)
{P} = phosphate

Columns and labels:
[1] = test system: HT-1080 fibrosarcoma cells; assay: BrdU incorporation assay, HT-1080 cells; assay type: cell-based, human
Procedure: (§1) FIG. 13a: Exposure to T-oligo increases SA-β-Gal activity. HT-1080 cells were treated for 4 days with diluent alone or 40 μM T-oligo or the complementary control oligo, then stained and assayed for SA-β-Gal activity. FIG. 13b: Quantitative analysis of SA-β-Gal positive cells. Cells expressing SA-β-Gal activity were counted and presented as percentage of total cells in the cultures. Averages and standard deviations were calculated from 3 representative fields from each of 3 independent experiments. FIG. 13c: Effect of T-oligo on cell proliferation. Cells were treated for 4 days as in FIG. 12 and assayed for DNA synthesis by BrdU incorporation. FIG. 13d: Quantitative analysis of BrdU incorporation. Dark black nuclei indicate BrdU incorporated into nuclear DNA. BrdU positive cells were calculated and presented as percentage of total cells in the cultures. Averages and standard deviations were calculated from 3 representative fields from each of 3 independent experiments. FIG. 13e: Effect of T-oligo on pRb phosphorylation. Cells were treated as in FIG. 13a and were then collected for protein analysis by western blot using 30 μg total protein and probed for pRb-ser780*, ser795* and ser807/811* (pRb phosphorylated at serine 780, serine 795 and serine 807/811 respectively). Lanes D, T and C contain protein samples from cells treated with diluent, T-oligo and complementary oligo respectively. β-actin was used as a loading control.
Parallel cultures were treated as described in FIG. 13a. Cells were then washed once with PBS and refed with complete medium without additional treatment for 24 hours or 48 hours. FIG. 14a: SA-β-Gal activity. […]
HT-1080 fibrosarcoma cells cultured on Permanox chamber slides were treated with diluent, 40 μM T-oligo or 40 μM complementary oligo for 4 days and DNA synthesis was assayed using 5-bromo-2′-deoxy-uridine (BrdU) Labeling and Detection Kit II (Roche Molecular Biochemicals, Indianapolis, Ind.) following the protocol supplied by the manufacturer. […] After incubation with anti-mouse-Ig-alkaline phosphatase, the color reaction was detected by light microscopy. […]

[2] = test system: pRb phosphorylation on serine 780, serine 795 and serine 807/811; assay: Western blot of pRb phosphorylation in HT-1080 cells; assay type: cell-based, human
Procedure: as §1, with “Lanes D, T and C contain protein samples from cells treated with diluent, T-oligo and complementary oligo respectively. β-actin was used as a loading control.” left out

[3] = test system: HT-1080 fibrosarcoma cells; assay: Telomere length (mean TRF length) assay; assay type: cell-based, human; conditions: HT-1080 cells, 40 μM, 4 days
Procedure: Cells were treated as described in FIG. 13a. Lanes 1, 2, 3 contain genomic DNA from cells treated with diluent (D), T-oligo (T), or complementary oligo (C). Lanes 4 and 5 contain high (H) molecular and low (L) molecular weight standard telomeric DNA.
HT-1080 fibrosarcoma cells were treated with diluent, 40 μM T-oligo or 40 μM complementary oligo for 4 days and then the genomic DNA was isolated using the DNeasy Tissue Kit (Qiagen, Valencia, Calif.). Telomere length was determined using the Telo TTAGGG Telomere Length Assay (Roche Molecular Biochemicals, Indianapolis, Ind.) following the protocol supplied by the manufacturer. […] Terminal restriction fragments (TRF) were detected by chemiluminescence. The mean TRF length was calculated by scanning the exposed X-ray film with a densitometer and calculated as previously described (Harley et al. [1990] Telomeres shorten during ageing of human fibroblasts. Nature 345, 458-460).
To determine the affect of T-oligos on the mean telomere length (MTL) in HT-1080 cells, cells were analyzed after treatment with T-oligo for 4 days which corresponded to the time that the senescent phenotype was readily observed. […] The less than 100 bp difference in calculated MTL is within the range of experimental variation and is not significant.

[4] = test system: p95/Nbs1 phosphorylation; assay: Western blot for phospho-p95/Nbs1 in Saos-2 cells; assay type: cell-based; conditions: 40 μM
Procedure: FIG. 18a: FACS profiles from one representative experiment of three with the percentage and standard deviations of cells in each phase of the cell cycle was calculated from triplicate cultures of each condition. FIG. 18b: Western blots with an antibody specific for phospho-p95/Nbs1. Lanes 1, 2 and 3 contained protein from cells treated with diluent, 11mer-1 or 11mer-2, respectively. Control cells (3 hours) were irradiated with 10 Gy of IR (+), or were sham irradiated (−).
Saos-2 cells are an osteosarcoma cell line that is reportedly telomerase negative and maintain telomeres by the ALT pathway. Saos-2 cell lines were treated with either diluent or 40 μM of the indicated oligonucleotide and cells were collected after 48 hours for FACS analysis. […] The results that the effect of the T-oligo in the telomerase negative cells is identical to the response in telomerase positive malignant cell lines.

In the case of “pGTTAGGGTTAG (DNA, 5' {P}, backbone not given here; listed as Homo sapiens) [Oligonucleotide 11mer-1]”, the “DNA synthesis (BrdU) after removal of oligo” value ([1]; HT-1080, 4 days 40 μM, then 1 and 2 days fresh medium without oligonucleotide) is reported as “did not resume DNA synthesis”, the “BrdU incorporation (BrdU positive cells)” value ([1]; HT-1080 cells, 40 μM, 4 days) is reported as 7±2% and the “state of pRb proteins after removal of oligo” value ([2]; HT-1080, 4 days 40 μM, then fresh medium without oligonucleotide) is reported as “sustained in an active, inhibitory state”. The “pRb phosphorylation on serine 780, serine 795 and serine 807/811” value ([2]; HT-1080 cells, 40 μM, 4 days) was “striking and selective reduction”, the “mean telomere length (MTL)” value [3] was 5.56 kb and the “phosphorylation of p95/Nbs1” value [4] was “induced phosphorylation”.
